Measured values as given in patent US20110044938A1 (NYCOMED GMBH, priority 2006, published 2011).

Legend:
[1] = test system: RKO (RKOp27) human colon adenocarcinoma cells; test: Alamar Blue cell viability assay, anti-proliferative/cytotoxic activity on proliferating RKO subclones; assay type: cell-based; details: RKOp27, 72 h, RKO p27 uninduced (proliferating) cells, value = class bound given in Table A, read-out: −logIC50 RKO p27 uninduced (proliferating) (converted)
Description: The anti-proliferative/cytotoxic activity of the compounds described herein, can be tested on subclones of RKO (RKOp27) human colon adenocarcinoma cells (Schmidt et al., Oncogene 19, 2423-2429; 2000) using the Alamar Blue cell viability assay (described in O'Brien et al. Eur J Biochem 267, 5421-5426, 2000). The compounds are dissolved as 20 mM solutions in dimethylsulfoxide (DMSO) and subsequently diluted in semi-logarithmic steps. DMSO dilutions are further diluted 1:100 into Dulbecco's modified Eagle's medium (DMEM) containing 10% fetal calf serum to a final concentration twice as much as the final concentration in the test. RKO subclones are seeded into 96 well flat bottom plates at a density of 5000 cells per well in a volume of 50 μl per well. 24 hours after seeding the 50 μl each of the compound dilutions in DMEM medium are added into each well of the 96 Well plate. Each compound dilution is tested as quadruplicates. Wells containing untreated control cells are filled with 50 μl DMEM medium containing 1% DMSO. The cells are then incubated with the substances for 72 hours at 37° C. in a hunified atmosphere containing 5% carbon dioxide. To determine the viability of the cells, 10 μl of an Alamar Blue solution (Biosource) are added and the fluorescence is measured at an extinction of 544 nm and an emission of 590 nm. For the calculation of the cell viability the emission value from untreated cells is set as 100% viability and the emission rates of treated cells are set in relation to the values of untreated cells. Viabilities are expressed as % values.
The corresponding IC50 values of the compounds for anti-proliferative/cytotoxic activity are determined from the concentration-effect curves.
(§1) Representative −log IC50 [mol/l] values for anti-proliferation/cytotoxicity determined in the mentioned assays follow from the following table A, in which the numbers of the compound correspond to the numbers of the examples.

[2] = test system: subclones of RKO colon adenocarcinoma cells (RKOp27 or RKOp21) arrested by Ponasterone A; test: Alamar Blue cell viability assay, cell cycle specific mode of action: cells arrested by ectopic p27Kip1 induced by Ponasterone A versus proliferating cells; assay type: cell-based; details: Homo sapiens, RKO p27 induced (arrested) cells, 10 μM Ponasterone A, 72 hours, value = class bound given in Table A, read-out: −logIC50 RKO p27 induced (arrested) (converted)
Description: To determine the cell cycle specific mode of action, subclones of RKO colon adenocarcinoma cells (RKOp27 or RKOp21 as described by Schmidt et al. in Oncogene 19, 2423-2429; 2000) are seeded into 96 well flat bottom plates at a density of 15000 cells per well in a volume of 50 μl per well in DMEM growth medium with 10% FCS containing 10 μM Ponasterone A. 24 hours after seeding the 50 μl each of the compound dilutions in DMEM medium are added into each well of the 96 Well plate. Each compound dilution is tested as quadruplicates. Wells containing untreated control cells are filled with 50 μl DMEM medium containing 1% DMSO. The cells are then incubated with the substances for 72 hours at 37° C. in a humidified athmosphere containing 5% carbon dioxide. To determine the viability of the cells, 10 μl of an Alamar Blue solution (Biosource) are added and the fluorescence was measured at an extinction of 544 nm and an emission of 590 nm. For the calculation of the cell viability the emission value from untreated cells is set as 100% viability and the emission rates of treated cells are set in relation to the values of untreated cells. Viabilities are expressed as % values. Viability is compared of proliferating cells grown in the absence of the inducer Ponasterone A, versus viability of cells arrested by the expression of ectopic p27Kip1 induced by Ponasterone A.
as §1

Row | IC50 [2] | Structure (SMILES) | IC50 [1]
1 | ≥ 100 µM | Cn1cncc1CNC(=O)OCC1CCc2c(sc(NC(=O)/C=C/c3cccnc3)c2C#N)C1 (centres unmarked) [Example 43, (3-Methyl-3H-imidazol-4-ylmethyl)-carbamic acid 3-cyano-2-((E)-3-pyridin-3-yl-allanoylamino)-4,5,6,7-tetrahydro-benzo[b]thiophen-6-ylmethyl ester] | ≤ 0.501 µM
2 | ≥ 100 µM | CCOc1ccccc1CCC(=O)Nc1sc2c(c1C#N)CCC(COC(=O)NCc1ccnn1C)C2 (centres unmarked) [Example 180, (2-Methyl-2H-pyrazol-3-ylmethyl)-carbamic acid 3-cyano-2-[3-(2-ethoxy-phenyl)-propanoylamino]-4,5,6,7-tetrahydro-benzo[b]thiophen-6-ylmethyl ester] | ≤ 0.501 µM
3 | ≥ 100 µM | COCCNC(=O)OC1CCc2c(sc(NC(=O)/C=C/c3cccnc3)c2C#N)C1 (centres unmarked) [Example 18, (2-Methoxy-ethyl)-carbamic acid 3-cyano-2-((E)-3-pyridin-3-yl-allanoylamino)-4,5,6,7-tetrahydro-benzo[b]thiophen-6-yl ester] | 0.501 to 2 µM
4 | ≥ 100 µM | CCNC(=O)OC1CCc2c(sc(NC(=O)/C=C/c3cccnc3)c2C#N)C1 (centres unmarked) [Example 3, Ethyl-carbamic acid 3-cyano-2-((E)-3-pyridin-3-yl-allanoylamino)-4,5,6,7-tetrahydro-benzo[b]thiophen-6-yl ester] | ≤ 0.501 µM
5 | ≥ 10 µM | COc1cccc(C(C)CC(=O)Nc2sc3c(c2C#N)CCC(OC(=O)N2CCCC2)C3)c1 (centres unmarked) [Example 376, Pyrrolidine-1-carboxylic acid 3-cyano-2-(3-(3-methoxy-phenyl)-butanoylamino)-4,5,6,7-tetrahydro-benzo[b] thiophen-6-yl ester] | ≤ 0.501 µM
6 | ≥ 100 µM | CCN(C)C(=O)OC1CCc2c(sc(NC(=O)/C=C/c3cccnc3)c2C#N)C1 (centres unmarked) [Example 91, Ethyl-methyl-carbamic acid 3-cyano-2-((E)-3-pyridin-3-yl-allanoylamino)-4,5,6,7-tetrahydro-benzo[b]thiophen-6-yl ester] | ≤ 0.501 µM
7 | ≥ 50.1 µM | CC(CC(=O)Nc1sc2c(c1C#N)CCC(COC(=O)NC(C)c1cccnc1)C2)c1cccnc1 (centres unmarked) [Example 284, (1-Pyridin-3-yl-ethyl)-carbamic acid 3-cyano-2-(3-pyridin-3-yl-butanoyl-amino)-4,5,6,7-tetrahydro-benzo[b]thiophen-6-ylmethyl ester] | 0.501 to 2 µM
8 | ≥ 100 µM | N#Cc1c(NC(=O)CCc2cccnc2)sc2c1CCC(COC(=O)NCc1ccccc1)C2 (centres unmarked) [Example 157, Benzyl-carbamic acid 3-cyano-2-(3-pyridin-3-yl-propanoylamino)-4,5,6,7-tetrahydro-benzo[b]thiophen-6-ylmethyl ester] | ≤ 0.501 µM
9 | ≥ 100 µM | COc1cccc(CCC(=O)Nc2sc3c(c2C#N)CCC(COC(=O)N2CCCC2)C3)c1 (centres unmarked) [Example 246, Pyrrolidine-1-carboxylic acid 3-cyano-2-[3-(3-methoxy-phenyl)-propanoylamino]-4,5,6,7-tetrahydro-benzo[b]thiophen-6-ylmethyl ester] | ≤ 0.501 µM
10 | ≥ 100 µM | N#Cc1c(NC(=O)/C=C/c2cccnc2)sc2c1CCC(OC(=O)NC1CCC1)C2 (centres unmarked) [Example 139, Cyclobutyl-carbamic acid 3-cyano-2-((E)-3-pyridin-3-yl-allanoylamino)-4,5,6,7-tetrahydro-benzo[b]thiophen-6-yl ester] | ≤ 0.501 µM
11 | ≥ 100 µM | COC[C@@H]1CCCN1C(=O)OCC1CCc2c(sc(NC(=O)/C=C/c3cccnc3)c2C#N)C1 (stereo partly drawn) [Example 90, 2-(S)-(Methoxymethyl) pyrrolidine-1-carboxylic acid 3-cyano-2-((E)-3-pyridin-3-yl-allanoylamino)-4,5,6,7-tetrahydro-benzo[b]thiophen-6-ylmethyl ester] | ≤ 0.501 µM
12 | ≥ 100 µM | CCCNC(=O)OC1CCc2c(sc(NC(=O)/C=C/c3cccnc3)c2C#N)C1 (centres unmarked) [Example 107, Propyl-carbamic acid 3-cyano-2-((E)-3-pyridin-3-yl-allanoylamino)-4,5,6,7-tetrahydro-benzo[b]thiophen-6-yl ester] | ≤ 0.501 µM
13 | ≥ 100 µM | CCOc1ccccc1CCC(=O)Nc1sc2c(c1C#N)CCC(OC(=O)NCc1nccs1)C2 (centres unmarked) [Example 206, Thiazol-2-ylmethyl-carbamic acid 3-cyano-2-[3-(2-ethoxy-phenyl)-propanoylamino]-4,5,6,7-tetrahydro-benzo[b]thiophen-6-yl ester] | ≤ 0.501 µM
14 | ≥ 10 µM | CC(CC(=O)Nc1sc2c(c1C#N)CCC(OC(=O)OCc1cncs1)C2)c1ccccc1 (centres unmarked) [Example 375, Carbonic acid 3-cyano-2-(3-phenyl-butanoyl-amino)-4,5,6,7-tetrahydro-benzo[b] thiophen-6-yl ester thiazol-5-ylmethyl ester] | ≤ 0.501 µM
15 | ≥ 100 µM | Cn1cncc1CNC(=O)OC1CCc2c(sc(NC(=O)/C=C/c3cccnc3)c2C#N)C1 (centres unmarked) [Example 38, (3-Methyl-3H-imidazol-4-ylmethyl)-carbamic acid 3-cyano-2-((E)-3-pyridin-3-yl-allanoylamino)-4,5,6,7-tetrahydro-benzo[b]thiophen-6-yl ester] | 0.501 to 2 µM
16 | ≥ 100 µM | CCOc1ccccc1/C=C/C(=O)Nc1sc2c(c1C#N)CCC(COC(=O)NCCn1ccnc1)C2 (centres unmarked) [Example 32, (2-Imidazol-1-yl-ethyl)-carbamic acid 3-cyano-2-[(E)-3-(2-ethoxy-phenyl)-allanoylamino]-4,5,6,7-tetrahydro-benzo[b]thiophen-6-ylmethyl ester] | 0.501 to 2 µM
17 | ≥ 100 µM | CCOC(=O)OC1CCc2c(sc(NC(=O)CCc3cccnc3)c2C#N)C1 (centres unmarked) [Example 158, Carbonic acid 3-cyano-2-(3-pyridin-3-yl-propanoylamino)-4,5,6,7-tetrahydro-benzo[b]thiophen-6-yl ester ethyl ester] | 0.501 to 2 µM
18 | ≥ 100 µM | Cn1cnc(CNC(=O)OCC2CCc3c(sc(NC(=O)/C=C/c4cccnc4)c3C#N)C2)c1 (centres unmarked) [Example 44, (1-Methyl-1H-imidazol-4-ylmethyl)-carbamic acid 3-cyano-2-((E)-3-pyridin-3-yl-allanoylamino)-4,5,6,7-tetrahydro-benzo[b]thiophen-6-ylmethyl ester] | ≤ 0.501 µM
19 | ≥ 100 µM | COc1cccc(CCC(=O)Nc2sc3c(c2C#N)CCC(COC(=O)NCc2csc(C)n2)C3)c1 (centres unmarked) [Example 247, (2-Methyl-thiazol-4-ylmethyl)-carbamic acid 3-cyano-2-[3-(3-methoxy-phenyl)-propanoylamino]-4,5,6,7-tetrahydro-benzo[b]thiophen-6-ylmethyl ester] | ≤ 0.501 µM
20 | ≥ 100 µM | Cc1ccncc1/C=C/C(=O)Nc1sc2c(c1C#N)CCC(COC(=O)N1CCC[C@@H](O)C1)C2 (stereo partly drawn) [Example 131, (R)-3-Hydroxy-piperidine-1-carboxylic acid 3-cyano-2-[(E)-3-(4-methyl-pyridin-3-yl)-allanoylamino]-4,5,6,7-tetrahydro-benzo[b]thiophen-6-ylmethyl ester] | ≤ 0.501 µM
21 | ≥ 100 µM | CN(C)C(=O)OCC1CCc2c(sc(NC(=O)/C=C/c3cccnc3)c2C#N)C1 (centres unmarked) [Example 74, Dimethyl-carbamic acid 3-cyano-2-((E)-3-pyridin-3-yl-allanoylamino)-4,5,6,7-tetrahydro-benzo[b]thiophen-6-ylmethyl ester] | ≤ 0.501 µM
22 | ≥ 100 µM | N#Cc1c(NC(=O)/C=C/c2cccnc2)sc2c1CCC(COC(=O)NCc1ccccc1)C2 (centres unmarked) [Example 7, Benzyl-carbamic acid 3-cyano-2-((E)-3-pyridin-3-yl-allanoylamino)-4,5,6,7-tetrahydro-benzo[b]thiophen-6-ylmethyl ester] | ≤ 0.501 µM
